Experimental data: publication PMC4077706, “Lifting the Mask: Identification of New Small Molecule Inhibitors of Uropathogenic Escherichia coli Group 2 Capsule Biogenesis” (PLoS ONE, 2014)
Like-named read-outs stand apart in the source and are kept apart here.

What was measured:
[1] = cited from earlier work
Muscarinic M1 [2] = target: T1, Muscarinic M1 (Homo sapiens, UniProt P11229); assay: Radioligand binding 252610; conditions: read-out: IC50 Concurrent
T1 construct: host or cells: CHO-K1 cells
T1 sequence (P11229 whole entry): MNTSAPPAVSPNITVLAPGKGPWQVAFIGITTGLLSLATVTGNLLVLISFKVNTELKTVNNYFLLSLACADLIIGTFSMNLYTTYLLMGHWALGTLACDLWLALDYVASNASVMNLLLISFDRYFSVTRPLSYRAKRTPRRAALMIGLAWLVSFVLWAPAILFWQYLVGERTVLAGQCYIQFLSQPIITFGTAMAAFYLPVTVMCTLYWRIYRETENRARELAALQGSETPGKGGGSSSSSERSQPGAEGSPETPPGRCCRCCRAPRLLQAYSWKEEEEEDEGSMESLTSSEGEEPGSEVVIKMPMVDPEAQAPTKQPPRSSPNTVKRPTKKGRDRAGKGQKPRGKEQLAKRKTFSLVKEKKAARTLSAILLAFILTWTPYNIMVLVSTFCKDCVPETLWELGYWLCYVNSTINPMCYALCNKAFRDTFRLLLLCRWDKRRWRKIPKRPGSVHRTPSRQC

Muscarinic M1 [3] = target: T1, Muscarinic M1; conditions: cited from earlier work
Muscarinic M3 = Muscarinic M3 (Homo sapiens, UniProt P20309); conditions: cited from earlier work
Sequence of Muscarinic M3 (P20309 whole entry): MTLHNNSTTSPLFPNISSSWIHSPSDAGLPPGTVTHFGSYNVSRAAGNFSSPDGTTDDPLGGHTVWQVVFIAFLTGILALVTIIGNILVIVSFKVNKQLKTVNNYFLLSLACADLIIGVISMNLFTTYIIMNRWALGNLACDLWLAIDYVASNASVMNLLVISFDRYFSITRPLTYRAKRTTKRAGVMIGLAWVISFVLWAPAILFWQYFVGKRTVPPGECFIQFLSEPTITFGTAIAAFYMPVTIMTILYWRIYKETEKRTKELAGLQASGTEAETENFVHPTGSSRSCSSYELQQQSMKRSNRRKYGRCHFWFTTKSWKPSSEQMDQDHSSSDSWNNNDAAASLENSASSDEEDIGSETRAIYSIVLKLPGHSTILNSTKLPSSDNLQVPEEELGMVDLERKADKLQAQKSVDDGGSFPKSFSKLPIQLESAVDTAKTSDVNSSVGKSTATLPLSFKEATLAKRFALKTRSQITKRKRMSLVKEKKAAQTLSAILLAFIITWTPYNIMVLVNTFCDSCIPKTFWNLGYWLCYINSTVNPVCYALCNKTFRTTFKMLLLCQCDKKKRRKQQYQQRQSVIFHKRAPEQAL

Muscarinic M2 = target: T2, Muscarinic M2 (Homo sapiens, UniProt P08172); conditions: cited from earlier work
T2 construct: host or cells: CHO-K1 cells
T2 sequence (P08172 whole entry): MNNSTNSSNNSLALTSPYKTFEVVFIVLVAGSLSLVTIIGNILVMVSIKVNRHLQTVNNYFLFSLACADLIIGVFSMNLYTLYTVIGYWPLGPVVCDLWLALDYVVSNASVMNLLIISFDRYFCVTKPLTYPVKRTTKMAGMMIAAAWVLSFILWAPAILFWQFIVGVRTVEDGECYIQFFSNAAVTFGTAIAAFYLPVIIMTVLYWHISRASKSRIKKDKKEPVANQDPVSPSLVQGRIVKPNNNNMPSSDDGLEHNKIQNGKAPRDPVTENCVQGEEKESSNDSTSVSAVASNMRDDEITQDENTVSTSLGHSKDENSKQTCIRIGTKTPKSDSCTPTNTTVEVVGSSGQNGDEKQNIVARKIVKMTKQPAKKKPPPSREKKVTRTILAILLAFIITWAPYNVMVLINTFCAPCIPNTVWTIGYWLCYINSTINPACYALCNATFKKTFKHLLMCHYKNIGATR

Opiate δ1 (OP1, DOP) = Opiate δ1 (OP1, DOP) (Homo sapiens, UniProt P41143); conditions: cited from earlier work
Sequence of Opiate δ1 (OP1, DOP) (P41143 whole entry): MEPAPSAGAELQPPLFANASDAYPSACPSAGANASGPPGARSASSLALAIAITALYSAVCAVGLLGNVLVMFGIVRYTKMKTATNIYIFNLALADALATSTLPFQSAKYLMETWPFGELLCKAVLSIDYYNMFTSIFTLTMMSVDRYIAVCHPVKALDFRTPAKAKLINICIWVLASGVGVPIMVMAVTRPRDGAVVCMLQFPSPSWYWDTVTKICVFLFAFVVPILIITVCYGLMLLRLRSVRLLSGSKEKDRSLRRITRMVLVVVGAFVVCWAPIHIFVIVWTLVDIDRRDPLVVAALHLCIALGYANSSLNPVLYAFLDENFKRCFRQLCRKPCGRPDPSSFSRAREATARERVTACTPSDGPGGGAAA

[4] = assay standard, general statement; cited from earlier work

Structure (SMILES): CCN(CC)CCOC(=O)c1ccc(N)cc1 [Procaine]
- stability in human plasma of standard [1]: highly unstable

Structure (SMILES): C[N+]1(C)CCC(OC(=O)C(c2ccccc2)c2ccccc2)CC1.[I-] [Compound 4-DAMP, 4-DAMP]
- IC50 (Muscarinic M1 [2]): 5.51 nM
- nH Historical (Muscarinic M1 [3]): 1.0
- IC50 (Muscarinic M1 [3]; read-out: IC50 Historical): 4.5 nM
- nH Historical (Muscarinic M3): 1.10
- nH Historical (Muscarinic M2): 1.0

Structure (SMILES): Oc1ccc2c3c1O[C@H]1c4[nH]c5ccccc5c4C[C@@]4(O)[C@@H](C2)N(CC2CC2)CC[C@]314 [Naltrindole]
- nH Historical (Opiate δ1 (OP1, DOP)): 1.0

Structure (SMILES): OCCN(CCO)c1nc(N2CCCCC2)c2nc(N(CCO)CCO)nc(N3CCCCC3)c2n1 [Dipyridamole]
- solubility of standard [4]: poorly to moderately soluble
